Reference: patent publication US11331327B2, “Antibacterial use of halogenated salicylanilides” (UNION therapeutics A/S, priority 2014, dated 2022)
Converted amounts (≈) assume the structure as drawn.

System: S. aureus clinical isolates and S. aureus ATCC 29213
Assay: MIC assay according to CLSI criteria, Example 2, S. aureus strains
Type: cell-based, Staphylococcus aureus
Details: Staphylococcus aureus
Outline: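 S. aureus grown aerobically in cation-adjusted Mueller Hinton broth at 37° C. Exponential-phase cultures inoculated at about 5×10^5 cells per well, then incubated 18 hours at 37° C.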

## CN[C@H](CC(C)C)C(=O)N[C@H]1C(=O)N[C@@H](CC(N)=O)C(=O)N[C@H]2C(=O)N[C@H]3C(=O)N[C@H](C(=O)N[C@H](C(=O)O)c4cc(O)cc(O)c4-c4cc3ccc4O)[C@H](O)c3ccc(c(Cl)c3)Oc3cc2cc(c3O[C@@H]2O[C@H](CO)[C@@H](O)[C@H](O)[C@H]2O[C@H]2C[C@](C)(N)[C@H](O)[C@H](C)O2)Oc2ccc(cc2Cl)[C@H]1O [Vancomycin]
ATCC29213, strain 9-1862936
  MIC: 1 µg/mL (≈ 0.69 µM)
ATCC29213, strain 9-2625962
  MIC: 1 µg/mL (≈ 0.69 µM)
ATCC29213, strain 9-2642158
  MIC: 1 µg/mL (≈ 0.69 µM)
ATCC29213, strain 9-2955245
  MIC: 1 µg/mL (≈ 0.69 µM)
ATCC29213, strain 9-26422166
  MIC: 1 µg/mL (≈ 0.69 µM)
ATCC29213, strain 000040C
  MIC: 1 µg/mL (≈ 0.69 µM)
ATCC29213, strain 000041C
  MIC: 1 µg/mL (≈ 0.69 µM)
ATCC29213, strain 000274T
  MIC: 1 µg/mL (≈ 0.69 µM)
ATCC29213, strain 114660U
  MIC: 1 µg/mL (≈ 0.69 µM)
ATCC29213, strain 115015T
  MIC: 2 µg/mL (≈ 1.38 µM)
ATCC29213, strain 115242C
  MIC: 1 µg/mL (≈ 0.69 µM)
ATCC29213, strain 115263C
  MIC: 2 µg/mL (≈ 1.38 µM)
ATCC29213, strain 115268C
  MIC: 1 µg/mL (≈ 0.69 µM)
ATCC29213, strain 115273C
  MIC: 1 µg/mL (≈ 0.69 µM)
ATCC29213, strain 115295C
  MIC: 1 µg/mL (≈ 0.69 µM)
ATCC29213, strain 115303C
  MIC: 1 µg/mL (≈ 0.69 µM)
ATCC29213, strain 115370U
  MIC: 1 µg/mL (≈ 0.69 µM)
ATCC29213, strain 115427C
  MIC: 1 µg/mL (≈ 0.69 µM)
ATCC29213, strain 115445C
  MIC: 1 µg/mL (≈ 0.69 µM)
ATCC29213, strain 115561C
  MIC: 1 µg/mL (≈ 0.69 µM)
ATCC29213, strain 115584D
  MIC: 2 µg/mL (≈ 1.38 µM)
ATCC29213, strain 115628T
  MIC: 2 µg/mL (≈ 1.38 µM)
ATCC29213, strain 115690C
  MIC: 2 µg/mL (≈ 1.38 µM)
ATCC29213, strain 115691T
  MIC: 1 µg/mL (≈ 0.69 µM)
ATCC29213, strain 115740E
  MIC: 1 µg/mL (≈ 0.69 µM)
ATCC29213, strain 115810E
  MIC: 1 µg/mL (≈ 0.69 µM)
ATCC29213, strain 115903T
  MIC: 1 µg/mL (≈ 0.69 µM)
ATCC29213, strain 116122T
  MIC: 1 µg/mL (≈ 0.69 µM)
ATCC29213, strain ATCC 29213
  MIC: 1 µg/mL (≈ 0.69 µM)
ATCC29213, strain E5-1029252
  MIC: 1 µg/mL (≈ 0.69 µM)
ATCC29213, strain E5-1029558
  MIC: 1 µg/mL (≈ 0.69 µM)
ATCC29213, strain E5-1030440
  MIC: 1 µg/mL (≈ 0.69 µM)
ATCC29213, strain E5-1030469
  MIC: 2 µg/mL (≈ 1.38 µM)
ATCC29213, strain E5-1030472
  MIC: 1 µg/mL (≈ 0.69 µM)
ATCC29213, strain E5-1030482
  MIC: 1 µg/mL (≈ 0.69 µM)
ATCC29213, strain E5-1033076 (first line, r202)
  MIC: 1 µg/mL (≈ 0.69 µM)
ATCC29213, strain E5-1033076 (second line, r203)
  MIC: 1 µg/mL (≈ 0.69 µM)
ATCC29213, strain E5-1033088
  MIC: 1 µg/mL (≈ 0.69 µM)
ATCC29213, strain E5-1033091
  MIC: 1 µg/mL (≈ 0.69 µM)
ATCC29213, strain E5-1035277
  MIC: 1 µg/mL (≈ 0.69 µM)
ATCC29213, strain E5-1035284
  MIC: 1 µg/mL (≈ 0.69 µM)
ATCC29213, strain E5-1035775
  MIC: 1 µg/mL (≈ 0.69 µM)
ATCC29213, strain E5-1035779
  MIC: 1 µg/mL (≈ 0.69 µM)
ATCC29213, strain E5-1037958
  MIC: 1 µg/mL (≈ 0.69 µM)
ATCC29213, strain E5-1037971
  MIC: 1 µg/mL (≈ 0.69 µM)
ATCC29213, strain E5-1038279
  MIC: 1 µg/mL (≈ 0.69 µM)
ATCC29213, strain E5-1038286
  MIC: 1 µg/mL (≈ 0.69 µM)
ATCC29213, strain E5-1038294
  MIC: 1 µg/mL (≈ 0.69 µM)
ATCC29213, strain E5-1039684
  MIC: 1 µg/mL (≈ 0.69 µM)
ATCC29213, strain E5-1039697
  MIC: 1 µg/mL (≈ 0.69 µM)
ATCC29213, strain E5-1041977
  MIC: 2 µg/mL (≈ 1.38 µM)
ATCC29213, strain E5-1041979
  MIC: 1 µg/mL (≈ 0.69 µM)
ATCC29213, strain E5-1041980
  MIC: 1 µg/mL (≈ 0.69 µM)
ATCC29213, strain E5-1041987
  MIC: 1 µg/mL (≈ 0.69 µM)
ATCC29213, strain E5-1043184
  MIC: 1 µg/mL (≈ 0.69 µM)
ATCC29213, strain E5-1043668
  MIC: 1 µg/mL (≈ 0.69 µM)
ATCC29213, strain E5-1045179
  MIC: 1 µg/mL (≈ 0.69 µM)
ATCC29213, strain E5-1046019
  MIC: 1 µg/mL (≈ 0.69 µM)
ATCC29213, strain E5-1046020
  MIC: 1 µg/mL (≈ 0.69 µM)
ATCC29213, strain E5-1046039
  MIC: 1 µg/mL (≈ 0.69 µM)
ATCC29213, strain E5-1046070
  MIC: 1 µg/mL (≈ 0.69 µM)
ATCC29213, strain E5-1046074
  MIC: 1 µg/mL (≈ 0.69 µM)
ATCC29213, strain E5-1046085
  MIC: 2 µg/mL (≈ 1.38 µM)
ATCC29213, strain E5-1046096
  MIC: 1 µg/mL (≈ 0.69 µM)
ATCC29213, strain E5-1046296
  MIC: 1 µg/mL (≈ 0.69 µM)
ATCC29213, strain E5-1046297
  MIC: 1 µg/mL (≈ 0.69 µM)
ATCC29213, strain E5-1046298
  MIC: 1 µg/mL (≈ 0.69 µM)
ATCC29213, strain E5-1046723
  MIC: 2 µg/mL (≈ 1.38 µM)
ATCC29213, strain E5-1047585
  MIC: 1 µg/mL (≈ 0.69 µM)
ATCC29213, strain E5-1047606
  MIC: 1 µg/mL (≈ 0.69 µM)
ATCC29213, strain E5-1047924
  MIC: 1 µg/mL (≈ 0.69 µM)
ATCC29213, strain E5-1048204
  MIC: 2 µg/mL (≈ 1.38 µM)
ATCC29213, strain E5-1048428
  MIC: 1 µg/mL (≈ 0.69 µM)
ATCC29213, strain E5-1048654
  MIC: 1 µg/mL (≈ 0.69 µM)
ATCC29213, strain E5-1048670
  MIC: 2 µg/mL (≈ 1.38 µM)
ATCC29213, strain EEFIC 01
  MIC: 1 µg/mL (≈ 0.69 µM)
ATCC29213, strain EEFIC 02
  MIC: 1 µg/mL (≈ 0.69 µM)
ATCC29213, strain K000772
  MIC: 1 µg/mL (≈ 0.69 µM)
ATCC29213, strain K000796
  MIC: 1 µg/mL (≈ 0.69 µM)
ATCC29213, strain K000863
  MIC: 1 µg/mL (≈ 0.69 µM)
ATCC29213, strain K000864
  MIC: 1 µg/mL (≈ 0.69 µM)
ATCC29213, strain K000866
  MIC: 1 µg/mL (≈ 0.69 µM)
ATCC29213, strain K115498
  MIC: 2 µg/mL (≈ 1.38 µM)
ATCC29213, strain K115688
  MIC: 2 µg/mL (≈ 1.38 µM)
ATCC29213, strain K115689
  MIC: 2 µg/mL (≈ 1.38 µM)
ATCC29213, strain R000019
  MIC: 2 µg/mL (≈ 1.38 µM)
ATCC29213, strain R000020
  MIC: 1 µg/mL (≈ 0.69 µM)
ATCC29213, strain R000024
  MIC: 1 µg/mL (≈ 0.69 µM)
ATCC29213, strain U115579
  MIC: 1 µg/mL (≈ 0.69 µM)
ATCC 29213 / MRSA, strain MRSA 01
  MIC: 1 µg/mL (≈ 0.69 µM)
ATCC 29213 / MRSA, strain MRSA 02
  MIC: 2 µg/mL (≈ 1.38 µM)
ATCC 29213 / MRSA, strain MRSA 03
  MIC: 1 µg/mL (≈ 0.69 µM)
ATCC 29213 / MRSA, strain MRSA 04
  MIC: 2 µg/mL (≈ 1.38 µM)
ATCC 29213 / MRSA, strain MRSA 05
  MIC: 1 µg/mL (≈ 0.69 µM)
ATCC 29213 / MRSA, strain MRSA 06
  MIC: 2 µg/mL (≈ 1.38 µM)
ATCC 29213 / MRSA, strain MRSA 07
  MIC: 1 µg/mL (≈ 0.69 µM)
ATCC 29213 / MRSA, strain MRSA 08
  MIC: 1 µg/mL (≈ 0.69 µM)
ATCC 29213 / MRSA, strain MRSA 09
  MIC: 2 µg/mL (≈ 1.38 µM)
ATCC 29213 / MRSA, strain MRSA 10
  MIC: 1 µg/mL (≈ 0.69 µM)
ATCC 29213 / MRSA, strain MRSA 11
  MIC: 1 µg/mL (≈ 0.69 µM)
ATCC 29213 / MRSA, strain MRSA 13
  MIC: 1 µg/mL (≈ 0.69 µM)
ATCC 29213 / MRSA, strain MRSA 14
  MIC: 1 µg/mL (≈ 0.69 µM)
